Experimental data: US20120083522A1, “MODULATION OF INFLAMMATORY RESPONSES BY FACTOR XI” (Isis Pharmaceuitcals, inc., priority 2009, published 2012)
In the oligonucleotide strings, read from the 5' end, every base follows the letter of its sugar. An asterisk marks phosphorothioate; unmarked linkages are phosphodiester. Other units and linkages are bracketed, terminal groups are in braces. A string of capitals states the bases alone. e = 2'-O-(2-methoxyethyl) (MOE); [5mC] = 5-methylcytosine; d = 2'-deoxy (DNA)

Columns and labels:
Type in all cases: in vivo
[1] = Tolerability in CD1 mice: kidney function (Example 17); settings: plasma, 50 mg/kg s.c. twice a week
From the text: Results are presented in Tables 62 and 63, expressed in mg/dL.

[2] = Tolerability in CD1 mice: hematology assays (Example 17); settings: for lymphocyte count / monocyte count / neutrophil count: percent of total blood cell count; for HCT / MCH / MCHC / MCV / WBC count: blood, 50 mg/kg s.c. twice a week
Method: A control group of five mice was injected subcutaneously with PBS for 2 weeks. All experimental groups (i.e. ASO treated mice at 2, 4, 6 weeks) were compared to the control group (i.e. PBS, 2 weeks).
Blood obtained from all mice groups were sent to Antech Diagnostics for hematocrit (HCT), mean corpuscular volume (MCV), mean corpuscular hemoglobin (MCH), and mean corpuscular hemoglobin concentration (MCHC) measurements and analyses, as well as measurements of the various blood cells, such as WBC (neutrophils, lymphocytes, and monocytes), RBC, and platelets, and total hemoglobin content. Percentages given in the tables indicate the percent of total blood cell count.

[3] = Tolerability in Sprague-Dawley rats: hematology assays (Example 19); settings: 50 mg/kg s.c. twice per week for 6 weeks, 50 mg/kg
[4] = Tolerability in CD1 mice: liver function (Example 17); parameters: Albumin: unit not given here; settings: plasma, 50 mg/kg s.c. twice a week, 50 mg/kg
[5] = Tolerability in Sprague-Dawley rats: hematology assays (Example 19); settings: 50 mg/kg s.c. twice per week for 6 weeks
From the text: (§1) Urine samples were taken before the start of treatment.

[6] = Tolerability in Sprague-Dawley rats: kidney function (Example 19); settings: Sprague-Dawley rats, plasma, 50 mg/kg s.c. twice per week for 6 weeks; 50 mg/kg
From the text: as §1

[7] = Tolerability in Sprague-Dawley rats: liver function (Example 19); settings: plasma, 50 mg/kg s.c. twice per week for 6 weeks, 50 mg/kg
From the text: as §1

Sequence: GCCCTTCATGTCTAGGTCCA [ISIS 416892] (eG*e[5mC]*e[5mC]*d[5mC]*dT*dT*d[5mC]*dA*dT*dG*dT*d[5mC]*dT*dA*dG*dG*dT*e[5mC]*e[5mC]*eA) [3-14-3 MOE gapmer]
- BUN ([1]; 2 weeks, 50 mg/kg): 19 mg/dL
- creatinine ([1]; 2 weeks, 50 mg/kg): 0.11 mg/dL
- BUN ([1]; 4 weeks, 50 mg/kg): 28 mg/dL
- creatinine ([1]; 4 weeks, 50 mg/kg): 0.20 mg/dL
- creatinine ([1]; 6 weeks): 0.17 mg/dL
- BUN ([1]; 6 weeks, 50 mg/kg): 23 mg/dL
- RBC count ([2]; 2 weeks): 7 cells/pL
- hemoglobin content ([2]; 2 weeks): 13.0 g/dL
- platelet count ([2]; 2 weeks): 1687 cells/nL
- lymphocyte count ([2]; 2 weeks): 79%
- monocyte count ([2]; 2 weeks): 3%
- neutrophil count ([2]; 2 weeks): 19%
- RBC count ([2]; 4 weeks): 9 cells/pL
- hemoglobin content ([2]; 4 weeks): 13.5 g/dL
- platelet count ([2]; 4 weeks): 636 cells/nL
- lymphocyte count ([2]; 4 weeks): 52%
- monocyte count ([2]; 4 weeks): 6%
- neutrophil count ([2]; 4 weeks): 43%
- RBC count ([2]; 6 weeks): 9 cells/pL
- hemoglobin content ([2]; 6 weeks): 13.1 g/dL
- platelet count ([2]; 6 weeks): 1004 cells/nL
- lymphocyte count ([2]; 6 weeks): 64%
- monocyte count ([2]; 6 weeks): 7%
- neutrophil count ([2]; 6 weeks): 28%
- HCT ([2]; 2 weeks, 50 mg/kg): 48%
- MCH ([2]; 2 weeks, 50 mg/kg): 18 pg
- MCHC ([2]; 2 weeks, 50 mg/kg): 30%
- MCV ([2]; 2 weeks, 50 mg/kg): 59 fL
- WBC count ([2]; 2 weeks, 50 mg/kg): 5 cells/nL
- MCH ([2]; 4 weeks): 16 pg
- WBC count ([2]; 4 weeks): 8 cells/nL
- HCT ([2]; 4 weeks, 50 mg/kg): 42%
- MCHC ([2]; 4 weeks, 50 mg/kg): 32%
- MCV ([2]; 4 weeks, 50 mg/kg): 49 fL
- HCT ([2]; 6 weeks, 50 mg/kg): 45%
- MCH ([2]; 6 weeks, 50 mg/kg): 16 pg
- MCHC ([2]; 6 weeks, 50 mg/kg): 30%
- MCV ([2]; 6 weeks, 50 mg/kg): 53 fL
- WBC count ([2]; 6 weeks, 50 mg/kg): 9 cells/nL
- Platelets [3]: 66 10^3/μL
- WBC [3]: 68 nL⁻¹
- HCT ([3]; title says % control): 13%
- MCV ([3]; title says % control): 1 fL
- ALT ([4]; 2 weeks): 66 IU/L
- AST ([4]; 2 weeks): 121 IU/L
- Albumin ([4]; 2 weeks): 3.2
- Bilirubin ([4]; 2 weeks): 0.38 mg/dL
- ALT ([4]; 4 weeks): 1526 IU/L
- AST ([4]; 4 weeks): 1347 IU/L
- Albumin ([4]; 4 weeks): 4.0
- Bilirubin ([4]; 4 weeks): 2.99 mg/dL
- ALT ([4]; 6 weeks): 1939 IU/L
- AST ([4]; 6 weeks): 1443 IU/L
- Albumin ([4]; 6 weeks): 4.4
- Bilirubin ([4]; 6 weeks): 0.50 mg/dL
- Lymphocytes ([5]; 50 mg/kg): 18%
- Monocytes ([5]; 50 mg/kg): 58%
- Neutrophils ([5]; 50 mg/kg): 92%
- RBC ([5]; 50 mg/kg): 12 pL⁻¹
- MCH ([5]; title says % control): 2 pg
- Hemoglobin ([5]; title says % control, 50 mg/kg): 14 g/dL
- MCHC ([5]; title says % control, 50 mg/kg): 0%
- BUN [6]: 188 mg/dL
- creatinine [6]: 1 mg/dL
- ALT [7]: 113 IU/L
- AST [7]: 183 IU/L
- Albumin [7]: 8 mg/dL
- Bilirubin [7]: 1 mg/dL
